Source: patent publication US12637433B2, “Histone deacetylase inhibitors” (THE UNIVERSITY OF QUEENSLAND, priority 2020, dated 2026)

biological target: T1, human HDAC1 enzyme (Homo sapiens, UniProt Q13547); experiment: Human HDAC1 enzyme assay (Class I HDACs); type: biochemical; settings: Table 8; recombinant human HDAC1; read-out: IC50 (nM) (HDAC1)
T1 construct: purchased BPS Bioscience
Experimental: The inhibitory effect of compounds on HDAC1 activity was assessed in vitro using an optimised assay performed in black/flat black wall 384-well plate (Corning Inc.). All reagents and compounds were prepared in HDAC1 assay buffer (25 mM Tris-HCl, 137 mM NaCl, 2.7 mM KCl, 1 mM MgCl2·H2O and 0.1 mg/mL bovine serum albumin; pH 8). Various concentrations of inhibitor were pre-incubated with 50 ng/mL human HDAC1 enzyme (BPS Bioscience) for 30 min at room temperature on a plate shaker. Substrate (Leu(Ac)-Gly-Lys(Ac)-AMC, 12 μM) were then added and incubated for 90 min at 37° C. in the dark. The enzymatic reaction was then incubated with the developer solution (1 mg/mL trypsin and 25 μM SAHA) for 15-20 min at room temperature. Fluorescence intensity was measured using PHERAstar plate reader (BMG Labtech) at 350 nm excitation and 460 nm emission.
Data analysis: Triplicate measurements were made for each data point and error bars represent mean±SEM of three independent experiments. All data were plotted and analysed using GraphPad Prism Version 6.0d for Mac OS X (GraphPad Software). Dose Response Curves plotted using 4 parameters logistic model.

T1 sequence (Q13547 whole entry): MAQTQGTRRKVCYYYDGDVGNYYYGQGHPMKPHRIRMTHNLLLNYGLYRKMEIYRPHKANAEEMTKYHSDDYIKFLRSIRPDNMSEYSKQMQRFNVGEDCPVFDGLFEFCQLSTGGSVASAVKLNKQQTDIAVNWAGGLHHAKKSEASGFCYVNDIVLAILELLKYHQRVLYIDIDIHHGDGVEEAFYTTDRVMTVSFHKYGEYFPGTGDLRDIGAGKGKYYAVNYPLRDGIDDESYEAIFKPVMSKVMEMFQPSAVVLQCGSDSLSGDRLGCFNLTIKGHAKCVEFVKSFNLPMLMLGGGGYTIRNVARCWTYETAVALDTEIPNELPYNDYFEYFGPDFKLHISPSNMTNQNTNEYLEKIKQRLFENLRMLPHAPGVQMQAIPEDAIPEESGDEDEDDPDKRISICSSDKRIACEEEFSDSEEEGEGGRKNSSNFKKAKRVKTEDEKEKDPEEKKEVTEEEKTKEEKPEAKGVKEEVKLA

`O=C(NO)c1ccc(CN2C(=O)CCC2=O)cc1-c1ccccc1` [Example 51] and `O=C(NO)c1ccc(Cn2c(=O)cc[nH]c2=O)cc1-c1ccccc1` [Example 38] cannot be ordered by IC50: over 20000 nM for the first, over 10000 nM for the second.

Going from `O=C(NO)c1ccc(CN2Cc3ccccc3C2=O)cc1-c1ccccc1` [Example 49] to `O=C(NO)c1ccc(Cn2cnc3ccccc3c2=O)cc1-c1ccccc1` [Example 34], the IC50 falls from 33000 nM to 3190 ± 816 nM (10-fold).

`O=C(NO)c1ccc(CN2C(=O)c3cccnc3C2=O)cc1-c1ccccc1` [Example 53] and `O=C(NO)c1ccc(CN2C(=O)c3ccncc3C2=O)cc1-c1ccccc1` [Example 54] cannot be ordered by IC50: 28000 nM for the first, over 20000 nM for the second.

`Cc1cc(=O)n(Cc2ccc(C(=O)NO)c(-c3ccccc3)c2)c(C)n1` [Example 45] and `O=C(NCc1ccc(C(=O)NO)c(-c2ccccc2)c1)c1ccccc1F` [Example 50] cannot be ordered by IC50: over 10000 nM for the first, 16000 nM for the second.

biological target: T2, human HDAC7 enzyme (Homo sapiens, UniProt Q8WUI4); experiment: Human HDAC7 enzyme assay (Class IIa HDACs); type: biochemical; settings: Table 8; recombinant human HDAC7
T2 construct: purchased Reaction Biology Corp
T2 sequence (Q8WUI4 whole entry): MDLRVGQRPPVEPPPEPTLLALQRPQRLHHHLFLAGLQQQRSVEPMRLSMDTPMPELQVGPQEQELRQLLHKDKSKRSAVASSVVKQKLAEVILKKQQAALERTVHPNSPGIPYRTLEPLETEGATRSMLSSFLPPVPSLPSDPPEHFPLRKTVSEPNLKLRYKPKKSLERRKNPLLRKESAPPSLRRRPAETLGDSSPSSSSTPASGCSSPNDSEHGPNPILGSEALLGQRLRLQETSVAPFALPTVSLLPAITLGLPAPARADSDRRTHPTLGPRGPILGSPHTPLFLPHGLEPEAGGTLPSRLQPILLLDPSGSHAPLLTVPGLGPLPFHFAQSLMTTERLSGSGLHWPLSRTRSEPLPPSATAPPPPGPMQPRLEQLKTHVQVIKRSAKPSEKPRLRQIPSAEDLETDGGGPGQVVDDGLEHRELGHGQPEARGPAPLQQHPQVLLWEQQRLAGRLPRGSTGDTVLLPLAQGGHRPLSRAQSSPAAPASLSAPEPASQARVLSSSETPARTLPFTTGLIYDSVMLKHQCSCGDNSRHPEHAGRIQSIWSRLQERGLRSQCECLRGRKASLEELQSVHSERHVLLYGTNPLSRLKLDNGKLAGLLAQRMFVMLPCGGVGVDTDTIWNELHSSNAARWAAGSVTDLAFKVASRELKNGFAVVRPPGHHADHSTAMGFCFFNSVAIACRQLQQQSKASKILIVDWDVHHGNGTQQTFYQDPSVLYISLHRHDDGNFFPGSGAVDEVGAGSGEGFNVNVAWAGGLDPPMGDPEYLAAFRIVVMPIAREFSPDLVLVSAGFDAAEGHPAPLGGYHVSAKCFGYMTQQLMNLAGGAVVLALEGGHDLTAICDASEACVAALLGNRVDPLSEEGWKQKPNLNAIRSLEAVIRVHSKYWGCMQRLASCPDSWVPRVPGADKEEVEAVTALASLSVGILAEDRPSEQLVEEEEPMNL

`O=C(NO)c1ccc(CNCc2ccc[nH]2)cc1-c1ccccc1` [Example 95] and `O=C(NO)c1ccc(CNCc2ccccc2)cc1-c1ccccc1` [Example 30, 5-((benzylamino)methyl)-N-hydroxy-[1,1′-biphenyl]-2-carboxamide] are within error of each other in IC50: 914 ± 204 nM for the first, 1470 ± 426 nM for the second.

`O=C(Cc1c[nH]c2ccccc12)NCc1ccc(C(=O)NO)c(-c2ccccc2)c1` [Example 25] and `O=C(NCc1ccc(C(=O)NO)c(-c2ccccc2)c1)c1ccccc1` [Example 15] are within error of each other in IC50: 238 ± 86 nM for the first, 123 ± 39 nM for the second.

Compared with `O=C(NO)c1ccc(NC(=O)C2(C(=O)Nc3ccccc3)CCC2)cc1-c1ccccc1` [Example 88], `O=C(NO)c1ccc(NC(=O)C2(C(=O)Nc3ccccc3)CC2)cc1-c1ccccc1` [Example 87] is 3.2-fold higher in IC50: 75 ± 23 nM for the first, 241 nM for the second.

Compared with `O=C(NO)c1ccc(Oc2ccc(F)cc2)cc1-c1ccccc1` [Example 80], `CN(c1ccc(F)cc1)c1ccc(C(=O)NO)c(-c2ccccc2)c1` [Example 81] is 2.7-fold lower in IC50: 175 ± 26 nM for the first, 64 ± 10 nM for the second.

First: CC1C(=O)N(C2CCCCC2)C(=O)N1Cc1ccc(C(=O)NO)c(-c2ccccc2)c1 (stereo not shown) [Example 98]
Second: CC1C(=O)NC(Cc2ccccc2)C(=O)N1Cc1ccc(C(=O)NO)c(-c2ccccc2)c1 (mixture of isomers) [Example 96]
The IC50 of the first is 3.2-fold lower: 100 ± 18 nM for the first, 322 ± 109 nM for the second.

Going from `O=C(NO)c1c(F)cc(CN2C(=O)c3ccccc3S2(=O)=O)cc1-c1ccccc1` [Example 57b] to `CC1C(=O)Nc2ccccc2C(=O)N1Cc1ccc(C(=O)NO)c(-c2ccccc2)c1` (stereo not shown) [Example 97], the IC50 falls from 582 ± 104 nM to 74 ± 13 nM (7.9-fold).

`O=C(Nc1ccc(C(=O)NO)c(-c2ccccc2)c1)c1ccccc1` [Example 60] and `O=C(Nc1ccccc1)Nc1ccc(C(=O)NO)c(-c2ccccc2)c1` [Example 86] are within 1.5-fold of each other in IC50: 325 nM for the first, 248 nM for the second.

Compared with `Cc1ccc(-c2cc(CNC(=O)Nc3cccc4cccnc34)ccc2C(=O)NO)cc1` [Example 11], `Nc1ccc(-c2cc(CNC(=O)Nc3cccc4cccnc34)ccc2C(=O)NO)cc1` [Example 105] is higher in IC50: 1890 ± 431 nM for the first, over 10000 nM for the second.

Going from `Cc1nc2ccccc2c(=O)n1Cc1ccc(C(=O)NO)c(C2CC2)c1` [Example 106] to `CONC(=O)c1ccc(Cn2c(C)nc3ccccc3c2=O)cc1-c1ccccc1` [Example 101], the IC50 rises from 8660 nM to at least 10000 nM. The first is the more potent here.

`NC(=O)c1ccc(C(=O)NCc2ccc(C(=O)NO)c(-c3ccccc3)c2)cc1` [Example 21] and `CC(=O)Nc1ccc(C(=O)NCc2ccc(C(=O)NO)c(-c3ccccc3)c2)cc1` [Example 20] are within error of each other in IC50: 116 ± 27 nM for the first, 101 ± 26 nM for the second.

Going from `O=C(NCc1ccc(C(=O)NO)c(-c2cccc(Cl)c2)c1)Nc1cccc2cccnc12` [Example 8] to `O=C(NCc1ccc(C(=O)NO)c(-c2cccc(F)c2)c1)Nc1cccc2cccnc12` [Example 5], the IC50 falls from 886 ± 192 nM to 64 ± 12 nM (14-fold).

`O=C(O)c1ccc(Nc2ccc(C(=O)NO)c(-c3ccccc3)c2)cc1` [Example 74] and `CC(C)(C)OC(=O)c1ccc(Nc2ccc(C(=O)NO)c(-c3ccccc3)c2)cc1` [Example 75] are within error of each other in IC50: 68 ± 15 nM for the first, 54 ± 7 nM for the second.

`COc1ccc(C(=O)Nc2ccc(C(=O)NO)c(-c3ccccc3)c2)cc1` [Example 63] and `Cc1ccc(C(=O)Nc2ccc(C(=O)NO)c(-c3ccccc3)c2)cc1` [Example 62] are within 1.5-fold of each other in IC50: 323 nM for the first, 431 nM for the second.

First: O=C(NO)c1ccc(NC(=O)C2(c3c[nH]c(-c4ccc([N+](=O)[O-])cc4)n3)CCCC2)cc1-c1ccccc1 [Example 85]
Second: O=C(NO)c1ccc(NC(=O)C2(C(=O)Nc3ccccc3)CCCC2)cc1-c1ccccc1 [Example 89]
The IC50 of the first is 2.6-fold higher: 625 ± 318 nM for the first, 243 nM for the second.

Going from `O=C(NO)c1ccc(Nc2cc(F)c(F)c(F)c2)cc1-c1ccccc1` [Example 70] to `O=C(NO)c1ccc(Nc2cc(F)cc(F)c2)cc1-c1ccccc1` [Example 71], the IC50 falls from 649 nM to 206 nM (3.2-fold).

Going from `O=C(O)c1ccc(CNCc2ccc(C(=O)NO)c(-c3ccccc3)c2)cc1-c1ccccc1` [Example 33, N-(4-hydroxyaminocarbonyl-3-phenylbenzyl)-N-(4-hydroxycarbonyl-3-phenylbenzyl)amine] to `O=C(NO)c1ccc(CNCc2ccc(C(=O)NO)c(-c3ccccc3)c2)cc1-c1ccccc1` [Example 31, bis(4-hydroxyaminocarbonyl-3-phenylbenzyl)amine], the IC50 falls from 658 ± 208 nM to 125 ± 22 nM (5.3-fold).

First: O=C(NO)c1ccc(Nc2ccc(C(F)(F)F)cc2)cc1-c1ccccc1 [Example 69]
Second: O=C(NO)c1ccc(Nc2ccc(F)cc2)cc1-c1ccccc1 [Example 67]
The IC50 of the first is 6.6-fold higher: 578 nM for the first, 88 nM for the second.

Going from `Cc1nc2ccccc2c(=O)n1Cc1ccc(C(=O)N(C)O)c(-c2ccccc2)c1` [Example 100] to `O=C(NCc1ccc(C(=O)NO)c(-c2ccccc2)c1)Nc1ccccc1` [Example 28], the IC50 falls from at least 10000 nM to 104 ± 21 nM.

First: O=C(NO)c1ccc(Nc2ccccc2)cc1-c1ccccc1 [Example 66]
Second: O=C(NO)c1ccc(Nc2ccc(-c3ccccc3)cc2)cc1-c1ccccc1 [Example 72]
The IC50 of the first is lower: 94 nM for the first, over 10000 nM for the second. The first is the more potent here.

`Cc1cccc(-c2cc(CNC(=O)Nc3cccc4cccnc34)ccc2C(=O)NO)c1` [Example 10] and `COc1cccc(-c2cc(CNC(=O)Nc3cccc4cccnc34)ccc2C(=O)NO)c1` [Example 103] cannot be ordered by IC50: over 10000 nM for the first, over 10000 nM for the second.

First: O=C(NO)c1ccc(C(n2cc(-c3ccccc3)nn2)n2cc(-c3ccccc3)nn2)cc1-c1ccccc1 [Example 58]
Second: O=C(NO)c1ccc(Nc2ccc3ccccc3c2)cc1-c1ccccc1 [Example 73]
The IC50 of the first is 64-fold lower: 5 ± 1 nM for the first, 321 nM for the second.

Going from `O=C(NO)c1ccc(NC(=O)C2(c3ccc4ccccc4c3)CCOCC2)cc1-c1ccccc1` [Example 93] to `O=C(NO)c1ccc(NC(=O)C2(C(=O)Nc3ccccc3)CCCCC2)cc1-c1ccccc1` [Example 90], the IC50 falls from 1590 nM to 168 nM (9.5-fold).

`CC(=O)Nc1cccc(C(=O)NCc2ccc(C(=O)NO)c(-c3ccccc3)c2)c1` [Example 19] and `O=C(NCc1ccc(C(=O)NO)c(-c2ccccc2)c1)c1cccnc1` [Example 17] are within error of each other in IC50: 78 ± 21 nM for the first, 151 ± 52 nM for the second.

Going from `C[C@H](N)C(=O)NCc1ccc(C(=O)NO)c(-c2ccccc2)c1` [Example 92] to `O=C(NCc1ccc(C(=O)NO)c(-c2ccccc2)c1)c1cnc[nH]1` [Example 94], the IC50 falls from 3130 ± 1730 nM to 165 ± 45 nM (19-fold).

`O=C(NCc1ccc(C(=O)NO)c(-c2ccccc2F)c1)Nc1cccc2cccnc12` [Example 4] and `O=C(NCc1ccc(C(=O)NO)c(-c2ccccc2Cl)c1)Nc1cccc2cccnc12` [Example 7] are within error of each other in IC50: 152 ± 40 nM for the first, 178 ± 47 nM for the second.

`O=C(NO)c1ccc(Nc2ccccn2)cc1-c1ccccc1` [Example 82] and `O=C(NO)c1ccc(Nc2cnccn2)cc1-c1ccccc1` [Example 84] are within error of each other in IC50: 249 nM for the first, 233 ± 95 nM for the second.

Going from `COc1ccc(-c2cc(CNC(=O)Nc3cccc4cccnc34)ccc2C(=O)NO)cc1` [Example 102] to `O=C(NCc1ccc(C(=O)NO)c(-c2ccc(F)cc2)c1)Nc1cccc2cccnc12` [Example 6], the IC50 falls from over 10000 nM to 118 ± 21 nM.

First: O=C(NO)c1ccc(Nc2ccc(Cl)cc2)cc1-c1ccccc1 [Example 68]
Second: Cc1ccc(Nc2ccc(C(=O)NO)c(-c3ccccc3)c2)cc1 [Example 76]
The IC50 of the first is 2.2-fold higher: 178 nM for the first, 81 ± 19 nM for the second.

First: CCCCCCNC(=O)NCc1ccc(C(=O)NO)c(-c2ccccc2)c1 [Example 29]
Second: O=C(NO)c1ccc(CNC(=O)C2CCCN2)cc1-c1ccccc1 (stereo not shown) [Example 27]
The IC50 of the first is 4.9-fold lower: 196 ± 66 nM for the first, 960 ± 225 nM for the second.

First: O=C(NCc1ccc(C(=O)NO)c(-c2ccccc2)c1)c1ccccn1 [Example 16]
Second: O=C(NCc1ccc(C(=O)NO)c(-c2ccccc2)c1)c1ccncc1 [Example 18]
The IC50 of the first is 1.9-fold lower: 108 ± 34 nM for the first, 205 ± 47 nM for the second. The first is the more potent here.

`O=C(NCc1ccc(C(=O)NO)c(-c2ccccc2)c1)c1ccccc1NC(=O)C(F)(F)F` [Example 22] and `O=C(Nc1ccc(C(=O)NO)c(-c2ccccc2)c1)c1ccc(F)cc1` [Example 61] are within error of each other in IC50: 925 ± 865 nM for the first, 645 nM for the second.

Going from `Nc1ccc(C(=O)NO)c(-c2ccccc2)c1` [Example 99] to `O=C(NO)c1ccc(Nc2ncccn2)cc1-c1ccccc1` [Example 83], the IC50 falls from 945 nM to 447 ± 177 nM (2.1-fold).

First: COC(=O)c1ccc(CNCc2ccc(C(=O)NO)c(-c3ccccc3)c2)cc1-c1ccccc1 [Example 32, N-(4-hydroxyaminocarbonyl-3-phenylbenzyl)-N-(4-methoxycarbonyl-3-phenylbenzyl)amine]
Second: COc1ccc(Nc2ccc(C(=O)NO)c(-c3ccccc3)c2)cc1 [Example 77]
The IC50 of the first is 2.2-fold higher: 137 ± 30 nM for the first, 61 ± 9 nM for the second.

Going from `O=C(NCc1ccc(C(=O)NO)c(-c2cn[nH]c2)c1)Nc1cccc2cccnc12` [Example 104] to `Cc1ccccc1-c1cc(CNC(=O)Nc2cccc3cccnc23)ccc1C(=O)NO` [Example 9], the IC50 falls from over 10000 nM to 125 ± 26 nM. The second is the more potent here.
